Data as given in patent US20090036355A1, “Antisense Modulation of PTP1B Expression” (priority 2004, published 2009).
Read-outs that look alike come from different tables or passages of the source.

What was measured:
ZDF rats [1] = assay: Fed plasma glucose in Zucker diabetic fatty (ZDF) rats; format: in vivo, rat
From the text: The leptin receptor deficient Zucker diabetic fatty (ZDF) rat is another useful model for the investigation of type 2 diabetes. Diabetes develops spontaneously in these male rats at ages 8-10 weeks, and is associated with hyperphagia, polyuria, polydipsia, and impaired weight gain, symptoms which parallel the clinical symptoms of diabetes (Phillips M S, et al., 1996, Nat Genet. 13, 18-19).
(§1) ZDF/GmiCrl-fa/fa (ZDF) male rats were purchased from Charles River Laboratories (Wilmington, Mass., USA). Six week old ZDF male rats were injected intraperitoneally with oligonucleotides at a dose of 25 mg/kg two times per week for four weeks. […] Saline-injected animals also serve as controls.

ZDF rats [2] = assay: Intraperitoneal glucose tolerance test (IPGTT) in ZDF rats; format: in vivo, rat
Protocol: as §1
An intraperitoneal glucose tolerance test (IPGTT) was also performed. Rats received intraperitoneal injections of glucose, and the blood glucose and insulin levels are measured before the glucose challenge and at intervals over 2 hours. The blood glucose levels (in mg/dL) are shown below in Table 1: […]

PTP1B protein = PTP1B protein levels in ZDF rats (Western blot); format: in vivo, rat; settings: compared to saline-treated animals
Protocol: as §1
PTP1B protein levels were measured by Western blot analysis.

PTP1B = PTP1B protein in HEPG2 cells (Western blot); format: cell-based, human; settings: 150 nM
Protocol: (§2) There is a high degree of homology between PTP1B and T-cell phosphatase (TC-PTPase, PTPN2), particularly in the catalytic domain. This may present problems in design of small molecule drugs specific for PTP1B. […] HEPG2 human hepatocellular liver carcinoma cells (ATCC, Manassas Va.) are routinely maintained in minimum essential medium (Eagle) with 2 mM L-glutamine and Earle's BSS adjusted to contain 1.5 g/L sodium bicarbonate, 0.1 mM non-essential amino acids, and 1.0 mM sodium pyruvate, […]; fetal bovine serum.
(§3) Levels of PTP1B and TC-PTPase protein were measured by Western blot using mouse monoclonal antibodies to PTP1B (AB-1) and TC-PTPase (AB-1) (CalBiochem/Oncogene sciences, EMD Biosciences, Inc., San Diego Calif.), which specifically identified human target proteins and were used at 0.25 ug/ml. Results were expressed as percent of control (no oligo treatment).

[3] = tested on: T-cell phosphatase (TC-PTPase, PTPN2); assay: TC-PTPase protein in HEPG2 cells (Western blot); format: cell-based, human; settings: 150 nM
Protocol: as §2, §3

[4] = rat, in vivo
ZDF rats [5] = assay: ZDF rats: comparison to rosiglitazone and metformin (glucose, HbA1c, meal tolerance, body weight); format: in vivo, rat
Protocol: A saline treated group of lean rats was also included in the study. Treatment with all drugs was initiated before the rats became frankly diabetic, which occurs at about 8 weeks of age. Plasma glucose levels were measured 3 and 5 weeks after treatment initiation. Body weight was measured once every week; in addition, HbA, levels were measured at the end of the study by HPLC. A meal tolerance test was also performed after 4 weeks of treatment.
At the end of 5 weeks, some rats were sacrificed and the liver and epididymal fat pads were removed. The rest of the animals (n=4/group) were examined for changes in plasma glucose levels after cessation of treatment. Glucose measurements during the recovery phase were made 10 days and 5 weeks after stopping treatment. Tissue extracts were subjected to Western blot analysis to measure changes in PTP1B protein levels.

[6] = AST/ALT and plasma cholesterol in aged ZDF rats; settings: weeks 1, 2, 3, 4 and 5
ZDF rats [7] = assay: Combination with metformin in ZDF rats: plasma glucose; format: in vivo, rat; settings: 4 weeks, metformin 100, 300 or 500 mg/kg per day, ISIS 113715 12.5 mg/kg twice a week
Protocol: 500 mg/kg is the maximally effective dose that can be tolerated by these rats. Plasma glucose was measured at week 0 (before treatment) and after weeks 1, 2 and 4 of treatment.

[8] = Combination with metformin in ZDF rats: hypoglycemia, AST/ALT, lipids, plasma lactate; format: in vivo, rat; settings: after 4 weeks of treatment, metformin 100, 300 or 500 mg/kg per day, ISIS 113715 12.5 mg/kg twice a week
Protocol: 500 mg/kg is the maximally effective dose that can be tolerated by these rats.
There was no significant change in AST/ALT, plasma triglyceride or plasma cholesterol levels in any animal group. Because of the risk of lactic acidosis associated with metformin treatment, plasma lactate levels were measured.

ISIS 141923: CCTTCCCTGAAGGTTCCTCC; SEQ ID NO: 20, six-mismatch control of ISIS 113715, negative oligonucleotide control (chemistry not given here)
fed plasma glucose levels (ZDF rats [1]; 25 mg/kg i.p. two times per week, week 0, saline 302±44): approximately 306±59 mg/dL | fed plasma glucose levels (ZDF rats [1]; week 1, saline 400±17): ~391 ± 35 mg/dL | fed plasma glucose levels (ZDF rats [1]; week 2, saline 441±13): ~402 ± 37 mg/dL | fed plasma glucose levels (ZDF rats [1]; week 3, saline 453±26): ~411 ± 27 mg/dL | fed plasma glucose levels (ZDF rats [1]; week 4, saline 425±10): ~392 ± 11 mg/dL | Blood glucose after IPGTT, Glucose mg/dL ± SEM (ZDF rats [2]; 0 min): 330 ± 39 mg/dL | Insulin excursion after IPGTT, Insulin (ng/ml ± SEM) (ZDF rats [2]; 0 min): 2.2 ± .30 ng/mL | Blood glucose after IPGTT, Glucose mg/dL ± SEM (ZDF rats [2]; 5 min): 543 ± 43 mg/dL | Insulin excursion after IPGTT, Insulin (ng/ml ± SEM) (ZDF rats [2]; 5 min): 2.3 ± .84 ng/mL | Blood glucose after IPGTT, Glucose mg/dL ± SEM (ZDF rats [2]; 15 min): 703 ± 60 mg/dL | Insulin excursion after IPGTT, Insulin (ng/ml ± SEM) (ZDF rats [2]; 15 min): 4.0 ± .22 ng/mL | Blood glucose after IPGTT, Glucose mg/dL ± SEM (ZDF rats [2]; 30 min): 791 ± 52 mg/dL | Insulin excursion after IPGTT, Insulin (ng/ml ± SEM) (ZDF rats [2]; 30 min): 4.2 ± .37 ng/mL | Blood glucose after IPGTT, Glucose mg/dL ± SEM (ZDF rats [2]; 60 min): 705 ± 51 mg/dL | Insulin excursion after IPGTT, Insulin (ng/ml ± SEM) (ZDF rats [2]; 60 min): 2.4 ± .66 ng/mL | Blood glucose after IPGTT, Glucose mg/dL ± SEM (ZDF rats [2]; 120 min): 594 ± 28 mg/dL | Insulin excursion after IPGTT, Insulin (ng/ml ± SEM) (ZDF rats [2]; 120 min): 1.7 ± .60 ng/mL | Insulin AUC after IPGTT (ZDF rats [2]; saline approximately 300): ~320 | Glucose excursion (AUC) after IPGTT (ZDF rats [2]; saline approximately 72,000): approximately 80,000 | PTP1B protein levels decreased by (PTP1B protein): 10% | PTP1B protein levels reduced by (PTP1B): reduced neither | TC-PTPase levels reduced by [3]: reduced neither | AST/ALT and plasma cholesterol levels [4]: no significant effects

CN(CCOc1ccc(CC2SC(=O)NC2=O)cc1)c1ccccn1 (stereo not drawn) [Rosiglitazone]
Blood glucose (mg/dL) (approx.) (ZDF rats [5]; 10 day washout, saline 310): ~260 mg/dL | Blood glucose (mg/dL) (approx.) (ZDF rats [5]; 31 day washout, saline 320): ~270 mg/dL | Blood glucose (mg/dL) (approx.) (ZDF rats [5]; Pre-treatment, ISIS 113715 50 mg/kg/week IP, rosiglitazone 10 mg/kg/day, metformin 800 mg/kg/day orally, saline 140): ~140 mg/dL | Blood glucose (mg/dL) (approx.) (ZDF rats [5]; Week 3 of dosing, saline 320): ~110 mg/dL | AST/ALT and plasma cholesterol levels [6]: no significant effects

CN(C)C(=N)N=C(N)N [Metformin]
Blood glucose (mg/dL) (approx.) (ZDF rats [5]; 31 day washout, saline 320): ~330 mg/dL | Blood glucose (mg/dL) (approx.) (ZDF rats [5]; Week 3 of dosing, saline 320): ~180 mg/dL | body weight (ZDF rats [5]; after treatment): remained unchanged | effect on blood glucose over time (ZDF rats [7]): lost over time | plasma lactate levels [8]: dose-dependent increase
